Source: patent US12168650B2, “Crystalline forms of 3-(5-(2-hydroxy-2-methylpropoxy)-6-methylpyrazin-2-yl)-1H-indole-7-carbonitrile” (NIDO BIOSCIENCES, INC., priority 2022, dated 2024)
Values after ≈ are worked out from the molar mass of the structure shown.

Assays:
[1] = Stability of Form C (Tables 5A-5F); format: physicochemical
[2] = Solubility in aqueous media at 37° C.; format: physicochemical; conditions: for XRPD of residual solids: 24 h; for solubility at 2 h / solubility at 24 h: thermodynamic from solid
Description: The anhydrate Form C (equivalent to 8 mg of free form) was weighed into a 20 mL glass vial. 4 mL of solubility medium was added. Obtained suspensions were stirred at 37° C. at 400 rpm. Some of the suspensions were taken out at 2 hours and 24 hours, respectively. Then they were centrifuged at 3700 at 14,000 rpm for 5 (m. Supernatants were analyzed by HPLC and pH meter for solubility and pH, respectively. Residual solids (wet cakes) were characterized by XRPD to determine physical form.

[3] = pH 7.0 phosphate buffer (50 mM)
[4] = aqueous buffer, pH 3.0 citrate buffer (50 mM)
[5] = aqueous buffer, pH 5.0 acetate buffer (50 mM)
[6] = aqueous buffer, pH 7.0 phosphate buffer (50 mM)
[7] = simulated gastric fluid, pH 1.0 HCl solution (0.1N)

Cc1nc(-c2c[nH]c3c(C#N)cccc23)cnc1OCC(C)(C)O [Form C, 3-(5-(2-hydroxy-2-methylpropoxy)-6-methylpyrazin-2-yl)-1H-indole-7-carbonitrile]
Impurities, HPLC: A ([1]; 25° C./60% RH, 01 Month): <0.05 area %
Impurities, HPLC: B ([1]; 25° C./60% RH, 01 Month): <0.05 area %
Impurities, HPLC: C ([1]; 25° C./60% RH, 01 Month): <0.05 area %
Impurities, HPLC: D ([1]; 25° C./60% RH, 01 Month): <0.05 area %
Impurities, HPLC: RRT 1.07 ([1]; 25° C./60% RH, 01 Month): 0.71 area %
Impurities, HPLC: SM1 ([1]; 25° C./60% RH, 01 Month): <0.05 area %
Impurities, HPLC: SM2 ([1]; 25° C./60% RH, 01 Month): <0.05 area %
Impurities, HPLC: Unidentified impurity ([1]; 25° C./60% RH, 01 Month): <0.05 area %
Purity, HPLC ([1]; 25° C./60% RH, 01 Month): 99.3 area %
Water content ([1]; 25° C./60% RH, 01 Month): <0.05 wt %
Impurities, HPLC: A ([1]; 25° C./60% RH, 03 Month): <0.05 area %
Impurities, HPLC: B ([1]; 25° C./60% RH, 03 Month): <0.05 area %
Impurities, HPLC: C ([1]; 25° C./60% RH, 03 Month): <0.05 area %
Impurities, HPLC: D ([1]; 25° C./60% RH, 03 Month): <0.05 area %
Impurities, HPLC: RRT 1.07 ([1]; 25° C./60% RH, 03 Month): 0.77 area %
Impurities, HPLC: SM1 ([1]; 25° C./60% RH, 03 Month): <0.05 area %
Impurities, HPLC: SM2 ([1]; 25° C./60% RH, 03 Month): <0.05 area %
Impurities, HPLC: Unidentified impurity ([1]; 25° C./60% RH, 03 Month): <0.05 area %
Purity, HPLC ([1]; 25° C./60% RH, 03 Month): 99.2 area %
Water content ([1]; 25° C./60% RH, 03 Month): <0.05 wt %
Impurities, HPLC: A ([1]; 25° C./60% RH, 06 Month): <0.05 area %
Impurities, HPLC: B ([1]; 25° C./60% RH, 06 Month): <0.05 area %
Impurities, HPLC: C ([1]; 25° C./60% RH, 06 Month): <0.05 area %
Impurities, HPLC: D ([1]; 25° C./60% RH, 06 Month): <0.05 area %
Impurities, HPLC: RRT 1.07 ([1]; 25° C./60% RH, 06 Month): 0.73 area %
Impurities, HPLC: SM1 ([1]; 25° C./60% RH, 06 Month): <0.05 area %
Impurities, HPLC: SM2 ([1]; 25° C./60% RH, 06 Month): <0.05 area %
Impurities, HPLC: Unidentified impurity ([1]; 25° C./60% RH, 06 Month): <0.05 area %
Purity, HPLC ([1]; 25° C./60% RH, 06 Month): 99.3 area %
Water content ([1]; 25° C./60% RH, 06 Month): <0.05 wt %
Assay, HPLC ([1]; 25° C./60% RH, 09 Month): 99.4 wt %
Impurities, HPLC: A ([1]; 25° C./60% RH, 09 Month): <0.05 area %
Impurities, HPLC: B ([1]; 25° C./60% RH, 09 Month): <0.05 area %
Impurities, HPLC: C ([1]; 25° C./60% RH, 09 Month): <0.05 area %
Impurities, HPLC: D ([1]; 25° C./60% RH, 09 Month): <0.05 area %
Impurities, HPLC: RRT 1.07 ([1]; 25° C./60% RH, 09 Month): 0.72 area %
Impurities, HPLC: SM1 ([1]; 25° C./60% RH, 09 Month): <0.05 area %
Impurities, HPLC: SM2 ([1]; 25° C./60% RH, 09 Month): <0.05 area %
Impurities, HPLC: Unidentified impurity ([1]; 25° C./60% RH, 09 Month): <0.05 area %
Purity, HPLC ([1]; 25° C./60% RH, 09 Month): 99.3 area %
Water content ([1]; 25° C./60% RH, 09 Month): <0.05 wt %
Assay, HPLC ([1]; 25° C./60% RH, 12 Month): 99.4 wt %
Impurities, HPLC: A ([1]; 25° C./60% RH, 12 Month): <0.05 area %
Impurities, HPLC: B ([1]; 25° C./60% RH, 12 Month): <0.05 area %
Impurities, HPLC: C ([1]; 25° C./60% RH, 12 Month): <0.05 area %
Impurities, HPLC: D ([1]; 25° C./60% RH, 12 Month): <0.05 area %
Impurities, HPLC: RRT 1.07 ([1]; 25° C./60% RH, 12 Month): 0.74 area %
Impurities, HPLC: SM1 ([1]; 25° C./60% RH, 12 Month): <0.05 area %
Impurities, HPLC: SM2 ([1]; 25° C./60% RH, 12 Month): <0.05 area %
Impurities, HPLC: Unidentified impurity ([1]; 25° C./60% RH, 12 Month): <0.05 area %
Purity, HPLC ([1]; 25° C./60% RH, 12 Month): 99.3 area %
Water content ([1]; 25° C./60% RH, 12 Month): <0.05 wt %
Impurities, HPLC: A ([1]; 25° C./60% RH, Initial): <0.05 area %
Impurities, HPLC: B ([1]; 25° C./60% RH, Initial): <0.05 area %
Impurities, HPLC: C ([1]; 25° C./60% RH, Initial): <0.05 area %
Impurities, HPLC: D ([1]; 25° C./60% RH, Initial): <0.05 area %
Impurities, HPLC: RRT 1.07 ([1]; 25° C./60% RH, Initial): 0.77 area %
Impurities, HPLC: SM1 ([1]; 25° C./60% RH, Initial): <0.05 area %
Impurities, HPLC: SM2 ([1]; 25° C./60% RH, Initial): <0.05 area %
Impurities, HPLC: Unidentified impurity ([1]; 25° C./60% RH, Initial): <0.05 area %
Purity, HPLC ([1]; 25° C./60% RH, Initial): 99.2 area %
Water content ([1]; 25° C./60% RH, Initial): <0.05 wt %
Assay, HPLC ([1]; 40° C./75% RH, 01 Month): 99.7 wt %
Impurities, HPLC: A ([1]; 40° C./75% RH, 01 Month): <0.05 area %
Impurities, HPLC: B ([1]; 40° C./75% RH, 01 Month): <0.05 area %
Impurities, HPLC: C ([1]; 40° C./75% RH, 01 Month): <0.05 area %
Impurities, HPLC: D ([1]; 40° C./75% RH, 01 Month): <0.05 area %
Impurities, HPLC: RRT 1.07 ([1]; 40° C./75% RH, 01 Month): 0.70 area %
Impurities, HPLC: SM1 ([1]; 40° C./75% RH, 01 Month): <0.05 area %
Impurities, HPLC: SM2 ([1]; 40° C./75% RH, 01 Month): <0.05 area %
Impurities, HPLC: Unidentified impurity ([1]; 40° C./75% RH, 01 Month): <0.05 area %
Purity, HPLC ([1]; 40° C./75% RH, 01 Month): 99.3 area %
Water content ([1]; 40° C./75% RH, 01 Month): <0.05 wt %
Assay, HPLC ([1]; 40° C./75% RH, 03 Month): 98.7 wt %
Impurities, HPLC: A ([1]; 40° C./75% RH, 03 Month): <0.05 area %
Impurities, HPLC: B ([1]; 40° C./75% RH, 03 Month): <0.05 area %
Impurities, HPLC: C ([1]; 40° C./75% RH, 03 Month): <0.05 area %
Impurities, HPLC: D ([1]; 40° C./75% RH, 03 Month): <0.05 area %
Impurities, HPLC: RRT 1.07 ([1]; 40° C./75% RH, 03 Month): 0.77 area %
Impurities, HPLC: SM1 ([1]; 40° C./75% RH, 03 Month): <0.05 area %
Impurities, HPLC: SM2 ([1]; 40° C./75% RH, 03 Month): <0.05 area %
Impurities, HPLC: Unidentified impurity ([1]; 40° C./75% RH, 03 Month): <0.05 area %
Purity, HPLC ([1]; 40° C./75% RH, 03 Month): 99.2 area %
Water content ([1]; 40° C./75% RH, 03 Month): <0.05 wt %
Assay, HPLC ([1]; 40° C./75% RH, 06 Month): 99.1 wt %
Impurities, HPLC: A ([1]; 40° C./75% RH, 06 Month): <0.05 area %
Impurities, HPLC: B ([1]; 40° C./75% RH, 06 Month): <0.05 area %
Impurities, HPLC: C ([1]; 40° C./75% RH, 06 Month): <0.05 area %
Impurities, HPLC: D ([1]; 40° C./75% RH, 06 Month): <0.05 area %
Impurities, HPLC: RRT 1.07 ([1]; 40° C./75% RH, 06 Month): 0.73 area %
Impurities, HPLC: SM1 ([1]; 40° C./75% RH, 06 Month): <0.05 area %
Impurities, HPLC: SM2 ([1]; 40° C./75% RH, 06 Month): <0.05 area %
Impurities, HPLC: Unidentified impurity ([1]; 40° C./75% RH, 06 Month): <0.05 area %
Purity, HPLC ([1]; 40° C./75% RH, 06 Month): 99.3 area %
Water content ([1]; 40° C./75% RH, 06 Month): <0.05 wt %
Assay, HPLC ([1]; 40° C./75% RH, Initial): 99.4 wt %
Impurities, HPLC: A ([1]; 40° C./75% RH, Initial): <0.05 area %
Impurities, HPLC: B ([1]; 40° C./75% RH, Initial): <0.05 area %
Impurities, HPLC: C ([1]; 40° C./75% RH, Initial): <0.05 area %
Impurities, HPLC: D ([1]; 40° C./75% RH, Initial): <0.05 area %
Impurities, HPLC: RRT 1.07 ([1]; 40° C./75% RH, Initial): 0.77 area %
Impurities, HPLC: SM1 ([1]; 40° C./75% RH, Initial): <0.05 area %
Impurities, HPLC: SM2 ([1]; 40° C./75% RH, Initial): <0.05 area %
Impurities, HPLC: Unidentified impurity ([1]; 40° C./75% RH, Initial): <0.05 area %
Purity, HPLC ([1]; 40° C./75% RH, Initial): 99.2 area %
Water content ([1]; 40° C./75% RH, Initial): <0.05 wt %
Stability ([1]; conditions where the temperature and relative humidity are altered): stable
XRPD of residual solids ([2]; pH 1.0 HCl solution (0.1N)): Form C
XRPD of residual solids ([2]; pH 3.0 citrate buffer (50 mM)): Form C
XRPD of residual solids ([2]; pH 5.0 acetate buffer (50 mM)): Form C
XRPD of residual solids [2, 3]: Form C
solubility at 2 h [2, 4]: 5.97 µg/mL (≈ 18.5 µM)
solubility at 24 h [2, 4]: 4.08 µg/mL (≈ 12.7 µM)
solubility at 2 h [2, 5]: 5.44 µg/mL (≈ 16.9 µM)
solubility at 24 h [2, 5]: 3.85 µg/mL (≈ 11.9 µM)
solubility at 2 h [2, 6]: 5.43 µg/mL (≈ 16.8 µM)
solubility at 24 h [2, 6]: 11.6 µg/mL (≈ 35.9 µM)
24 h (pH) of supernatant ([2]; pH 1.0 HCl solution (0.1N)): 1.0
24 h (pH) of supernatant ([2]; pH 3.0 citrate buffer (50 mM)): 3.1
24 h (pH) of supernatant ([2]; pH 5.0 acetate buffer (50 mM)): 5.1
24 h (pH) of supernatant [2, 3]: 7.3
solubility at 2 h [2, 7]: 17 µg/mL (≈ 52.8 µM)
solubility at 24 h [2, 7]: 14.6 µg/mL (≈ 45.2 µM)
